The experiment deals with Alpha-glucosidase MAL12 (Saccharomyces cerevisiae (strain ATCC 204508 / S288c), UniProt P53341). The experiment in a line: Baker's Yeast alpha-Glucosidase Inhibition Assay. To be noted: pH 6.8; 37 °C. Here is the method: The enzyme inhibition was evaluated according to the method previously reported by Taha et al. with slight modification. Various concentration of test compounds (10 uL) were dissolved in DMSO (ranging from 200 to 6.25 ug/mL) and premixed with 95 uL of 50 mM phosphate buffer (pH 6.8). Then, 25 uL of enzyme (0.0625 U/mL) in phosphate buffer saline was added into each well and the plate was incubated at 37 °C for 10 min. Afterward, 25 uL of PNPG in phosphate buffer saline (5 mM) were added and pre-read of the plate was taken by using a microplate reader (Spectrostar Nano BMG Labtech, Germany). The reaction mixture was then incubated at 37 °C for 30 min and change in absorbance at 405 nm was monitored up to 30 min. For negative control, the test samples were replaced with 10 uL of DMSO and acarbose was used as positive control. All experiments were triplicated and the results were expressed as the mean +/- S.E.M of three determinations.
Chain of Alpha-glucosidase MAL12 (P53341 whole entry): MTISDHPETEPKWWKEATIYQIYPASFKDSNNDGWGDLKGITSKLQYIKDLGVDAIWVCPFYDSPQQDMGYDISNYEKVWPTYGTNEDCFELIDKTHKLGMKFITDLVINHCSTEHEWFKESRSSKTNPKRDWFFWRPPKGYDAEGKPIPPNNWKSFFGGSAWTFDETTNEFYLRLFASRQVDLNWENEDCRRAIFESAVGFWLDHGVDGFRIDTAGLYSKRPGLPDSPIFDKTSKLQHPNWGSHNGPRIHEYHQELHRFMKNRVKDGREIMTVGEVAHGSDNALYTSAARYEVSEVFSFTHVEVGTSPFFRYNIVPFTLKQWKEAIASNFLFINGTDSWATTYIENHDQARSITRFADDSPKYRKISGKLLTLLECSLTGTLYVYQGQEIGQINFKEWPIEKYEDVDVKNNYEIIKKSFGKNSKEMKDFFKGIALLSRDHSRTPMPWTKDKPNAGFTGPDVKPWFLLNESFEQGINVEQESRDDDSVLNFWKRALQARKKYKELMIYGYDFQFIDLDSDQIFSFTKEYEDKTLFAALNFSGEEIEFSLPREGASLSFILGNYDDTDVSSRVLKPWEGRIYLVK
In the case of `O=c1oc2ccccc2c(O)c1C(c1ccc(NC(=S)Nc2cccc(Br)c2)cc1)c1c(O)c2ccccc2oc1=O` [1-(4-(bis(4-Hydroxy-2-oxo-2H-chromen-3-yl)methyl)phenyl)-3-(3-bromophenyl)-thiourea (2)], the IC50 – broadly, the concentration needed to halve the response being measured – worked out at 35.9 µM.
With `O=c1oc2ccccc2c(O)c1C(c1ccc(NC(=S)Nc2cccc([N+](=O)[O-])c2)cc1)c1c(O)c2ccccc2oc1=O` [1-(4-(bis(4-Hydroxy-2-oxo-2H-chromen-3-yl)methyl)phenyl)-3-(3-nitrophenyl)-thiourea (17)] the figure was 51 µM; with `O=c1oc2ccccc2c(O)c1C(c1ccc(NC(=S)Nc2ccc([N+](=O)[O-])cc2)cc1)c1c(O)c2ccccc2oc1=O` [1-(4-(bis(4-Hydroxy-2-oxo-2H-chromen-3-yl)methyl)phenyl)-3-(4-nitrophenyl) thiourea (18)], 24.7 µM.
The molecule `O=c1oc2ccccc2c(O)c1C(c1ccc(NC(=S)Nc2ccccc2F)cc1)c1c(O)c2ccccc2oc1=O` [1-(4-(bis(4-Hydroxy-2-oxo-2H-chromen-3-yl)methyl)phenyl)-3-(2-fluorophenyl)-thiourea (7)] yielded an IC50 of 91.3 µM.
With `O=c1oc2ccccc2c(O)c1C(c1ccc(NC(=S)Nc2cccc(F)c2)cc1)c1c(O)c2ccccc2oc1=O` [1-(4-(bis(4-Hydroxy-2-oxo-2H-chromen-3-yl)methyl)phenyl)-3-(3-fluorophenyl)-thiourea (8)] the figure was 55.1 µM; with `O=c1oc2ccccc2c(O)c1C(c1ccc(NC(=S)Nc2ccc(F)cc2)cc1)c1c(O)c2ccccc2oc1=O` [1-(4-(bis(4-Hydroxy-2-oxo-2H-chromen-3-yl)methyl)phenyl)-3-(4-fluorophenyl)-thiourea (9)], 53.4 µM.
Next, `O=c1oc2ccccc2c(O)c1C(c1ccc(NC(=S)Nc2ccccc2Br)cc1)c1c(O)c2ccccc2oc1=O` [1-(4-(bis(4-Hydroxy-2-oxo-2H-chromen-3-yl)methyl)phenyl)-3-(2-bromophenyl)-thiourea (1)]: 37.4 µM; `O=c1oc2ccccc2c(O)c1C(c1ccc(NC(=S)Nc2ccc(Br)cc2)cc1)c1c(O)c2ccccc2oc1=O` [1-(4-(bis(4-Hydroxy-2-oxo-2H-chromen-3-yl)methyl)phenyl)-3-(4-bromophenyl)-thiourea (3)]: 39 µM.
